Target: T1, human iNOS (Homo sapiens, UniProt P35228)
T1 construct: expressed in transfected cells; host or cells: HEK293
Experiment: DAN assay of nitric oxide production (hiNOS)
Format: cell-based
Details: enzyme expressed in HEK293 cells transiently transfected with human iNOS
Description: The source of nitric oxide synthase (NOS) enzyme can be generated in several ways including induction of endogenous iNOS using cytokines and/or lipopolysaccharide (LPS) in various cell types known in the art. Alternatively, the gene encoding the enzyme can be cloned and the enzyme can be generated in cells via heterologous expression from a transient or stable expression plasmid with suitable features for protein expression as are known in the art. Enzymatic activity (nitric oxide production) is calcium independent for iNOS, while the constitutive NOS isoforms, nNOS and eNOS, become active with the addition of various cofactors added to cellular media or extract as are well known in the art. Enzymes specified in Table 1 were expressed in HEK293 cells transiently transfected with human iNOS.
A major metabolic pathway for nitric oxide is to nitrate and nitrite, which are stable metabolites within tissue culture, tissue, plasma, and urine (S Moncada, A Higgs, N Eng J Med 329, 2002 (1993)).
The level of nitrate or nitrite in the specimen can be quantified by any method known in the art which provides adequate sensitivity and reproducibility. A variety of protocols have also been described for detecting and quantifying nitrite and nitrate levels in biological fluids by ion chromatography (e.g., A Everett et al., J. Chromatogr. 706, 437 (1995); J M Monaghan et al., J. Chromatogr. 770, 143 (1997)), high-performance liquid chromatography (e.g., M Kelm et al., Cardiovasc. Res. 41, 765 (1999)), and capillary electrophoresis (MA Friedberg et al., J. Chromatogr. 781, 491 (1997)). For example, 2,3-diaminonaphthalene reacts with the nitrosonium cation that forms spontaneously from NO to form the fluorescent product 1H-naphthotriazole. Using 2,3-diaminonaphthalene (“DAN”), researchers have developed a rapid, quantitative fluorometric assay that can detect from 10 nM to 10 μM nitrite and is compatible with a multi-well microplate format. […] DAN reacts with nitrite ion and gives fluorescent naphthotriazole (MC Carré et al., Analusis 27, 835-838 (1999)). Table 1 provides the test results of various compounds of the subject invention using the DAN assay.
A specimen can be processed prior to determination of nitrate or nitrite as required by the quantification method, or in order to improve the results, or for the convenience of the investigator. For example, processing can involve centrifuging, filtering, or homogenizing the sample. If the sample is whole blood, the blood can be centrifuged to remove cells and the nitrate or nitrite assay performed on the plasma or serum fraction. If the sample is tissue, the tissue can be dispersed or homogenized by any method known in the art prior to determination of nitrate or nitrite. It may be preferable to remove cells and other debris by centrifugation or another method and to determine the nitrate or nitrite level using only the fluid portion of the sample, or the extracellular fluid fraction of the sample. The sample can also be preserved for later determination, for example by freezing of urine or plasma samples. When appropriate, additives may be introduced into the specimen to preserve or improve its characteristics for use in the nitrate or nitrite assay.
The “level” of nitrate, nitrite, or other NO-related product usually refers to the concentration (in moles per liter, micromoles per liter, or other suitable units) of nitrate or nitrite in the specimen, or in the fluid portion of the specimen. However, other units of measure can also be used to express the level of nitrate or nitrite. For example, an absolute amount (in micrograms, milligrams, nanomoles, moles, or other suitable units) can be used, particularly if the amount refers back to a constant amount (e.g., grams, kilograms, milliliters, liters, or other suitable units) of the specimens under consideration. A number of commercially available kits can be used. […]

T1 sequence (P35228 whole entry): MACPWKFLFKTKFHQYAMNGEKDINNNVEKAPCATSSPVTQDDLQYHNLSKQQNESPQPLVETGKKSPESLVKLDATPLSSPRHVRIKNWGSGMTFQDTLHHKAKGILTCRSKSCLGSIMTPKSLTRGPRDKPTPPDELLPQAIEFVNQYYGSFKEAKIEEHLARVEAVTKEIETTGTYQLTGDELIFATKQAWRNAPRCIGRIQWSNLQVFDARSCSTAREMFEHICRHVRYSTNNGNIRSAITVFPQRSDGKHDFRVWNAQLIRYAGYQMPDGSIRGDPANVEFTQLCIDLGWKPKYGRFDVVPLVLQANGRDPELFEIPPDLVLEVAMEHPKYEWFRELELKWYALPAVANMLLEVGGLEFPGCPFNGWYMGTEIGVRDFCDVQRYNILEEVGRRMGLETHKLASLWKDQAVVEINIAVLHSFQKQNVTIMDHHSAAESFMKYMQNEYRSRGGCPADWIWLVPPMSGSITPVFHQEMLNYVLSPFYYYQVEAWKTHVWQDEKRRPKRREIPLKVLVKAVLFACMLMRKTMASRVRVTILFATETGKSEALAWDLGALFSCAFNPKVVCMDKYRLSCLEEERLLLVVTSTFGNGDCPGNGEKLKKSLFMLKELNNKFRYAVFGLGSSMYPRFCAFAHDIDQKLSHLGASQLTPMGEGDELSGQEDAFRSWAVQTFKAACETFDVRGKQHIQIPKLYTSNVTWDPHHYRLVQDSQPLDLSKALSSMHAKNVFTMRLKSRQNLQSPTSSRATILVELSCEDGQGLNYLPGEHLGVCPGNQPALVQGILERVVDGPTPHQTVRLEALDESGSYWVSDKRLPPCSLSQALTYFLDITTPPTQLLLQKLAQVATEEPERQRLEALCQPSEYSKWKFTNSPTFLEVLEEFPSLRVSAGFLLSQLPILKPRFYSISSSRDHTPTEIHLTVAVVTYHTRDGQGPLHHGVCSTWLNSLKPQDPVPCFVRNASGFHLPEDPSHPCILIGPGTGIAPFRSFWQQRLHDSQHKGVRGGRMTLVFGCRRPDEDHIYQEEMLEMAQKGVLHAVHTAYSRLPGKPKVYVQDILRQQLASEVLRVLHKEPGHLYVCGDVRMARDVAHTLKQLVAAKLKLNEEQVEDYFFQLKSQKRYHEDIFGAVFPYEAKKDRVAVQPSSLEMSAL

| Compound | EC50 |
| --- | --- |
| CN(C)Cc1nc2ccccc2n1Cc1cc(=O)[nH]c2c(F)c(F)ccc12 [Example 198, 4-((2-((Dimethylamino)methyl)-1H-benzo[d]imidazol-1-yl)methyl)-7,8-difluoroquinolin-2(1H)-one] | > 5 µM |
| O=C(c1ccc2ncccc2c1)N(Cc1cc(=O)[nH]c2c(F)cccc12)c1cccc(Cl)c1 [Example 84, N-(3-Chlorophenyl)-N-((8-fluoro-2-oxo-1,2-dihydroquinolin-4-yl)methyl)quinoline-6-carboxamide] | > 5 µM |
| Cn1cncc1C(=O)N(Cc1cc(=O)[nH]c2c(F)cccc12)c1cccc(Cl)c1 [Example 48, N-(3-Chlorophenyl)-N-((8-fluoro-2-oxo-1,2-dihydroquinolin-4-yl)methyl)-1-methyl-1H-imidazole-5-carboxamide] | > 5 µM |
| Cc1nc(C)n(Cc2cc(=O)[nH]c3c(F)c(F)ccc23)c1C [Example 256, 7,8-Difluoro-4((2,4,5-trimethyl-1H-imidazol-1-yl)methyl)quinolin-2(1H)-one] | > 5 µM |
| Cc1ncsc1-c1nc2ccccc2n1Cc1cc(=O)[nH]c2c(F)cccc12 [Example 79, 8-Fluoro-4-((2-(4-methylthiazol-5-yl)-1H-benzo[d]imidazol-1-yl)methyl)quinolin-2(1H)-one] | > 5 µM |
| O=C(c1cc(=O)[nH]c2c(F)cccc12)N(Cc1cscn1)c1cccc(Cl)c1 [Example 105, N-(3-Chlorophenyl)-8-fluoro-2-oxo-N-(thiazol-4-ylmethyl)-1,2-dihydroquinoline-4-carboxamide] | > 5 µM |
| CC1CC1c1nc2ccccc2n1Cc1cc(=O)[nH]c2c(F)c(F)ccc12 (racemic) [Example 238, 7,8-Difluoro-4-((2-(2-methylcyclopropyl)-1H-benzo[d]imidazol-1-yl)methyl)quinolin-2(1H)-one] | > 5 µM |
| O=c1cc(Cn2c(-c3cccnc3)nc3ccccc32)c2cccc(F)c2[nH]1 [Example 118, 8-Fluoro-4-((2-(pyridin-3-yl)-1H-benzo[d]imidazol-1-yl)methyl)quinolin-2(1H)-one] | > 5 µM |
| COc1ccc(N(Cc2cc(=O)[nH]c3ccccc23)C(=O)c2ccco2)cc1 [Example 10, N-(4-Methoxyphenyl)-N-[(2-oxo-1,2-dihydroquinolin-4-yl)methyl]-2-furamide] | ≤ 5 µM |
| Cc1ccc(C)c(-c2nc3ccccc3n2Cc2cc(=O)[nH]c3c(F)c(F)ccc23)c1 [Example 243, 4-((2-(2,5-Dimethylphenyl)-1H-benzo[d]imidazol-1-yl)methyl)-7,8-difluoroquinolin-2(1H)-one] | > 5 µM |
| O=c1cc(Cn2c(CCC3CCCCC3)nc3ccccc32)c2ccc(F)c(F)c2[nH]1 [Example 213, 4-((2-(2-Cyclohexylethyl)-1H-benzo[d]imidazol-1-yl)methyl)-7,8-difluoroquinolin-2(1H)-one] | > 5 µM |
| O=C1CCN(c2ccccc2)N1Cc1cc(=O)[nH]c2c(F)c(F)ccc12 [Example 252, 7,8-Difluoro-4-((5-oxo-2-phenylpyrazolidin-1-yl)methyl)quinolin-2(1H)-one] | ≤ 5 µM |
| Cn1cncc1-c1nc2ccccc2n1Cc1cc(=O)[nH]c2c(F)c(F)ccc12 [Example 122, 7,8-Difluoro-4-((2-(1-methyl-1H-imidazol-5-yl)-1H-benzo[d]imidazol-1-yl)methyl)quinolin-2(1H)-one] | ≤ 5 µM |
| CSc1nc2ccccc2n1Cc1cc(=O)[nH]c2c(F)c(F)ccc12 [Example 192, 7,8-Difluoro-4-((2-(methylthio)-1H-benzo[d]imidazol-1-yl)methyl)quinolin-2(1H)-one] | ≤ 5 µM |
| Cc1ccccc1Cc1nc2ccccc2n1Cc1cc(=O)[nH]c2c(F)c(F)ccc12 [Example 216, 7,8-Difluoro-4-((2-(2-methylbenzyl)-1H-benzo[d]imidazol-1-yl)methyl)quinolin-2(1H)-one] | > 5 µM |
| Cc1cnccc1-c1nc2ccccc2n1Cc1cc(=O)[nH]c2c(F)c(F)ccc12 [Example 199, 7,8-Difluoro-4-((2-(3-methylpyridin-4-yl)-1H-benzo[d]imidazol-1-yl)methyl)quinolin-2(1H)-one] | ≤ 5 µM |
| O=c1cc(Cn2c(-c3c(F)cccc3F)nc3ccccc32)c2ccc(F)c(F)c2[nH]1 [Example 247, 4-((2-(2,6-Difluorophenyl)-1H-benzo[d]imidazol-1-yl)methyl)-7,8-difluoroquinolin-2(1H)-one] | > 5 µM |
| Cc1cccc2c(CN(C(=O)c3ccco3)c3ccccc3)cc(=O)[nH]c12 [Example 16, N-((8-Methyl-2-oxo-1,2-dihydroquinolin-4-yl)methyl)-N-phenylfuran-2-carboxamide] | ≤ 5 µM |
| Cc1ccccc1-c1nc2ccccc2n1Cc1cc(=O)[nH]c2c(F)c(F)ccc12 [Example 240, 7,8-Difluoro-4-((2-o-tolyl-1H-benzo[d]imidazol-1-yl)methyl)quinolin-2(1H)-one] | > 5 µM |
| O=C(c1ccncc1)N(Cc1cc(=O)[nH]c2c(F)cccc12)c1cccc(Cl)c1 [Example 69, N-(3-Chlorophenyl)-N-((8-fluoro-2-oxo-1,2-dihydroquinolin-4-yl)methyl)isonicotinamide] | > 5 µM |

Second part, the molecule after the results:

| EC50 | Compound |
| --- | --- |
| ≤ 5 µM | Cc1ncsc1C(=O)N(Cc1cc(=O)[nH]c2c(F)c(F)ccc12)c1ccccc1 [Example 175, N-Phenyl-N-((7,8-fluoro-2-oxo-1,2-dihydroquinolin-4-yl)methyl)-4-methylthiazole-5-carboxamide] |
| ≤ 5 µM | Cc1ccc(N(Cc2cc(=O)[nH]c3c(F)c(F)ccc23)C(=O)c2scnc2C)cc1Cl [Example 177, N-(3-Chloro4-methylphenyl)-N-((7,8-fluoro-2-oxo-1,2-dihydroquinolin-4-yl)methyl)-4-methylthiazole-5-carboxamide] |
| > 5 µM | COc1ccc(C(=O)N(Cc2cc(=O)[nH]c3c(F)cccc23)c2cccc(Cl)c2)cc1 [Example 62, N-(3-Chlorophenyl)-N-((8-fluoro-2-oxo-1,2-dihydroquinolin-4-yl)methyl)-4-methoxybenzamide] |
| > 5 µM | Cc1ccncc1C(=O)N(Cc1cc(=O)[nH]c2c(F)cccc12)c1cccc(Cl)c1 [Example 72, N-(3-Chlorophenyl)-N-((8-fluoro-2-oxo-1,2-dihydroquinolin-4-yl)methyl)-4-methylnicotinamide] |
| ≤ 5 µM | Cc1ncsc1C(=O)N(Cc1c(F)c(=O)[nH]c2c(F)cccc12)c1cccc(Cl)c1 [Example 108, N-(3-Chlorophenyl)-N-((3,8-difluoro-2-oxo-1,2-dihydroquinolin-4-yl)methyl)-4-methylthiazole-5-carboxamide] |
| ≤ 5 µM | Cc1nnsc1C(=O)N(Cc1cc(=O)[nH]c2c(F)c(F)ccc12)c1cccc(Cl)c1 [Example 110, N-(3-Chlorophenyl)-N-((7,8-difluoro-2-oxo-1,2-dihydroquinolin-4-yl)methyl)-4-methyl-1,2,3-thiadiazole-5-carboxamide] |
| > 5 µM | Cc1cccnc1C(=O)N(Cc1cc(=O)[nH]c2c(F)cccc12)c1cccc(Cl)c1 [Example 73, N-(3-Chlorophenyl)-N-((8-fluoro-2-oxo-1,2-dihydroquinolin-4-yl)methyl)-3-methylpicolinamide] |
| ≤ 5 µM | Cc1ncsc1C(=O)N(Cc1cc(=O)[nH]c2c(F)c(F)ccc12)c1ccc(C#N)c(Cl)c1 [Example 182, N-(3-Chloro-4-cyanophenyl)-N-((7,8-fluoro-2-oxo-1,2-dihydroquinolin-4-yl)methyl)-4-methylthiazole-5-carboxamide] |
| > 5 µM | Cn1cnc(C(=O)N(Cc2cc(=O)[nH]c3c(F)cccc23)c2cccc(Cl)c2)c1 [Example 46, N-(3-Chlorophenyl)-N-((8-fluoro-2-oxo-1,2-dihydroquinolin-4-yl)methyl)-1-methyl-1H-imidazole-4-carboxamide] |

— patent publication US20080139558A1, “QUINOLONES USEFUL AS INDUCIBLE NITRIC OXIDE SYNTHASE INHIBITORS” (KALYPSYS, INC., priority 2006, published 2008)
